Experimental data published in patent publication US20250108070A1, “METHOD FOR REPROGRAMMING CD8+ T CELLS TO ENHANCE THEIR THERAPEUTIC POTENTIAL AND APPLICATIONS THEREOF” (INSTITUT PASTEUR, priority 2022, published 2025).
Structures can show the parent of a compound that is named as a salt.

Key:
[1] = tested on: mTORC1 and mTORC2 pathways; assay: Screening of GSK3 inhibitors: phospho-S6 / phospho-AKT staining (activation of mTORC1 and mTORC2 pathways); format: cell-based, human; conditions: for frequency of pS6+pAKT+ cells / activation of mTORC pathway: FIG. 12A, in words; for Fold change in pS6+pAKT+cells (relative to DMSO): 12 hs at optimal dose, washout, 48 hs anti-CD3/anti-CD28, symbols not defined
Procedure: (§1) FIG. 12. Screening molecules for reprogramming human CD8^+ T cells Total CD8^+ T cells were purified and treated for 12 hs with titrated doses of GSK3 inhibitors or DMSO vehicle control. After drug washout, cells were stimulated for 48 hs with plate-bound anti-CD3/anti-CD28 antibodies (at 1 mg/mL), followed by flow cytometry analyses. A. Upon stimulation, intracellular cytokine and phospho-protein staining was performed, the latter for the detection of phospho-S6 and phospho-AKT proteins (indicative of activation of mTORC1 and mTORC2 pathways, respectively). The fold change in the frequency of IFN-γ^+TNF-α^+ and pS6^+pAKT^+ cells induced by the treatment with each GSK3 inhibitor, relative to DMSO control, was analyzed. […] B. Fold change in the expression of the indicated markers and memory phenotypes induced by anti-CD3/anti-CD28 antibody stimulation relative to unstimulated cells (at least 3 donors per condition). TCM: T central memory; TEM: T effector memory; TTM: T transitional memory; TTE: T terminal effector; TSCM: T stem cell memory.
(§2) For reprogramming of CD8^+ T cells followed by polyclonal stimulation, cells were isolated by negative magnetic bead sorting (Stemcell Technologies). For reprogramming of CD8^+ T cells followed by antigen-specific stimulation, PBMC and magnetically separated CD8^+ T cells and non-CD8^+ T cells were used (REAlease® CD8 MicroBead Kit; Miltenyi Biotech). Then, CD8^+ T cells were treated with a GSK3 inhibitor (6-Bromoindirubin-3′-oxime; BIO; Sigma-Aldrich), at 3 μM, or an equivalent concentration of dimethyl sulfoxide (DMSO) vehicle control, in complete medium, for 12 hs at 37° C., 5% CO2. Non-CD8 cells were left resting during this time in complete medium. CD8^+ T cells were washed with complete medium and stimulated with the peptide pool in presence of non-CD8 T cells.
(§3) In some experiments, cells were culture in RPMI medium without glucose (MP Biomedicals). CD8^+ T cell proliferation was evaluated by CFSE dilution (at 1 μM, Thermo Fisher Scientific). In additional experiments, reprogrammed CD8^+ T cells were stimulated with IL-7 or IL-15 (both at 10 ng/mL; R&D) and cultured for 6 days. In all the cases, cells were cultured at a density of 2×10^6 cells/mL.
(§4) After cultures, cells were stained with the LIVE/DEAD Fixable Aqua Dead Cell Stain kit (Thermo Fisher Scientific), with anti-CD3 Alexa Fluor 700 or APC efluor 780 and anti-CD8 PE Texas Red antibodies, accordingly. […] In some experiments, cells were stained with APC-conjugated dextramers (Immudex), incubated for 15 minutes at room temperature. Additional surface staining panels included anti-HLA-DR Superbright 780, anti-CD38 Superbright 600, anti-PD-1 BV421, anti-LAG-3 APC efluor 780, anti-TIM3 PE Cy7, and anti-TIGIT BV786 antibodies, or anti-CD122 PE and anti-CD215 FITC antibodies. The BD Transcription Factor Buffer Set kit (BD Biosciences) was used for cell fixation and permeabilization. […] Cell acquisition was performed using LSR II or ARIA III flow cytometers (both from BD Biosciences), and data were analyzed with FlowJo v.10 software (BD Biosciences).
(§5) The inventors explored GSK3 inhibitors to expand the array of molecules that could be used for CD8^+ T cell reprogramming. They implemented a screening approach that combined the evaluation of cytokine polyfunctionality of CD8^+ T cells (IFN-γ+TNFα+) vs the activation of mTORC1 and mTORC2 pathways (pS6+pAKT+) upon treatment with the GSK3 inhibitors and subsequent polyclonal stimulation.

human CD8+ T cells [2] = assay: Screening of GSK3 inhibitors: cytokine polyfunctionality (IFN-γ+TNF-α+) of CD8+ T cells after anti-CD3/anti-CD28 stimulation; format: cell-based; conditions: for Fold change in IFN-γ+ TNF-a+cells (relative to DMSO): 12 hs at optimal dose, washout, 48 hs anti-CD3/anti-CD28, symbols not defined; for IFN-γ+TNF-α+ cells (polyfunctionality) relative to vehicle control: FIG. 12A, in words
Procedure: as §1, §2, §3, §4, §5

GSK3 = GSK3 inhibitor, review Front. Mol. Neurosci. 2011; cited from earlier work
human CD8+ T cells [3] = assay: Screening of GSK3 inhibitors: markers and memory phenotypes by flow cytometry; format: cell-based
Procedure: as §1, §2, §3, §4

[4] = 12 hs at optimal dose, anti-CD3/anti-CD28 stimulation relative to unstimulated cells, symbols not defined

Structure (SMILES): COc1ccc(CNC(=O)Nc2ncc([N+](=O)[O-])s2)cc1 [AR-A014418]
- frequency of pS6+pAKT+ cells / activation of mTORC pathway [1]: decreased

Structure (SMILES): CN1CCN(S(=O)(=O)c2ccc(-c3cnc(N)c(C(=O)Nc4cccnc4)n3)cc2)CC1 [AZD 2858]
- Fold change in IFN-γ+ TNF-a+cells (relative to DMSO) (human CD8+ T cells [2]): + +
- Fold change in pS6+pAKT+cells (relative to DMSO) [1]: + +

Structure (SMILES): O=C1Cc2c([nH]c3ccc([N+](=O)[O-])cc23)-c2ccccc2N1 [Alsterpaullone]
- Fold change in IFN-γ+ TNF-a+cells (relative to DMSO) (human CD8+ T cells [2]): + +
- IFN-γ+TNF-α+ cells (polyfunctionality) relative to vehicle control (human CD8+ T cells [2]): increased
- Fold change in pS6+pAKT+cells (relative to DMSO) [1]: + +
- frequency of pS6+pAKT+ cells / activation of mTORC pathway [1]: activation of mTORC pathway
- Fold change in % HLA+ CD38+ (human CD8+ T cells [3]; [4]): − −

Structure (SMILES): CC(=O)ON=C1C(=C2C(=O)Nc3cc(Br)ccc32)Nc2ccccc21 [Bio-acetoxime, 6-bromoindirubin-3′-acetoxime]
- Fold change in IFN-γ+ TNF-a+cells (relative to DMSO) (human CD8+ T cells [2]): + +
- IFN-γ+TNF-α+ cells (polyfunctionality) relative to vehicle control (human CD8+ T cells [2]): promoted
- frequency of pS6+pAKT+ cells / activation of mTORC pathway [1]: lower frequency
- CD127+ T-bet− phenotype (human CD8+ T cells [3]; FIG. 12B, in words): preserved
- acquisition of T-bet, HLA-DR and CD38, PD-1 and LAG-3 (human CD8+ T cells [3]; FIG. 12B, in words): restrained
- phenotype / profile promoted in CD8+ T cells (human CD8+ T cells [3]; FIG. 12B, in words): promoted a less-differentiated phenotype

Structure (SMILES): OCCCNc1cc(-c2ccnc(Nc3cccc(Cl)c3)n2)ccn1 [CGP 60474]
- Fold change in % HLA+ CD38+ (human CD8+ T cells [3]; [4]): − −

Structure (SMILES): NC1=N[C@H]2c3c([nH]c(Br)c3Br)C(=O)N3CCC[C@]23N1 [Dibromocantharelline]
- IC50 (GSK3): 3 µM

Structure (SMILES): CN1CC[C@H](c2c(O)cc(O)c3c(=O)cc(-c4ccccc4Cl)oc23)[C@H](O)C1 [Flavopiridol hydrochloride hydrate]
- Fold change in % HLA+ CD38+ (human CD8+ T cells [3]; [4]): − −
- Fold change in % Naive-TSCM (human CD8+ T cells [3]; [4]): − −
- Fold change in % TCM (human CD8+ T cells [3]; [4]): − −
